We go through two compounds from US20240417735A1, “ORAL CODELIVERY OF 5-FLUOREURACIL AND Bcl2 siRNA TREATING STOMACH CANCER” (Board of Regents, The University of Texas System, priority 2023, published 2024).

For data set [1], the system named is Bcl2. Briefly: Western blotting of Bcl2 in stomach tissue lysate. Format: in vivo, C57BL/6 mice. The note with it: healthy = 1. As for the experimental part: (§1) A stomach cancer mice model was developed by feeding N-methyl-N-nitrosourea (NMNU) with water (IACUC protocol no A-201019-A). The 6-week-old C57BL/6 mice were kept in a 12 hr light-12 hr dark cycle. The mice had unprotected access to food and water. NMNU was dissolved in distilled water available ad libitum, freshly prepared three times per week. The mice received 240 ppm NMNU in the drinking water over 5 weeks (every other week). Five weeks after NMNU administration, the mice were ready for the experiment, as the method was reported elsewhere. A total of 30 stomach cancer mice were prepared and divided randomly into […]—no treatment (control), 5FU, BG/5FU, siRNA, BG/siRNA, and BG/5FU/siRNA. Another group of healthy mice were used as a negative control without any treatment. To investigate therapeutic feasibility, 5FU (10 mg/kg) and siRNA (100 nM) was administered either orally (PO) or intravenously (IV). All the formulations were freshly prepared prior to administration. […] Immediately after harvesting the size and weight of the stomach and intestine were measured.
The fresh frozen stomach tissue was homogenized using RIPA buffer with freshly prepared protease inhibitor in it. […] The supernatant was collected, and the total protein content was determined using Bradford's assay (Sigma-Aldrich). […] The band intensities were calculated using ImageJ software.
(In general: Immunoblotting shows a protein as a band on a membrane.)

Data set [2] deals with Bcl2. Briefly: Immunohistochemistry/immunofluorescence of Bcl2 in stomach sections. The note with it: anti-Bcl2 positive area vs whole section stained with DAPI. Format: in vivo, C57BL/6 mice. As for the experimental part:
as §1, with “treatment.” for “treatment. To investigate therapeutic feasibility, 5FU (10 mg/kg) and siRNA (100 nM) was administered either orally (PO) or intravenously (IV). All the formulations were freshly prepared prior to administration.”, “measured. […]” for “measured.”
The stomach tissue was also utilized to analysis Bcl2 protein expression using immunohistochemistry (IHC). The anti-Bcl2 positive area was quantified in comparison to the whole tissue section stained with DAPI. […] To measure the relative expression of Bcl2 on the tissue section the data was calculated and compared with the stomach tissue collected from the healthy mice, where Bcl2 expression in healthy mice was considered as 100% (FIG. 5B). […]

A further data set concerns Ki67. Briefly: Immunofluorescence of Ki67 in stomach sections. The note with it: vs whole tissue section DAPI stained. Format: in vivo, C57BL/6 mice. As for the experimental part: as §1, with “treatment.” for “treatment. To investigate therapeutic feasibility, 5FU (10 mg/kg) and siRNA (100 nM) was administered either orally (PO) or intravenously (IV). All the formulations were freshly prepared prior to administration.”, “measured. […]” for “measured.”
Cell proliferation marker was measured by immunofluorescence assay to evaluate the antitumor effect of the formulations. […] The protein expression was quantified from immunofluorescence images. The area with Ki67 positive cells was measured in compared to the whole tissue section with DAPI stained. The area (%) of healthy, untreated, 5FU, BG/5FU, siRNA, BG/siRNA, and BG/5FU/siRNA was measured as 0.16%, 0.27%, 0.54%, 0.52%, 0.38%, 0.29%, and 0.03%, respectively. […]

Data set [3] deals with advanced colorectal cancer. As to conditions: cited from earlier work.
Data set [4] concerns stomach cancer mice model. Briefly: TUNEL assay of apoptosis in stomach tissue of stomach cancer mice. Format: in vivo, C57BL/6 mice. The note with it: relative to untreated control; oral, 5 doses every 3rd day. The protocol: as §1, with “treatment.” for “treatment. To investigate therapeutic feasibility, 5FU (10 mg/kg) and siRNA (100 nM) was administered either orally (PO) or intravenously (IV). All the formulations were freshly prepared prior to administration.”
A TUNEL assay was conducted to investigate the apoptosis within the tissue from the stomach of both healthy, untreated cancer, and treated cancer mice. […] Apoptosis was quantified by the mean fluorescent intensity and compared with healthy control and untreated control. The degree of apoptosis was calculated as 49, 107, 38, 62, and 131% for the 5FU, BG/5FU, siRNA, BG/siRNA, and BG/5FU/siRNA group relative to untreated control, respectively.

Data set [5] has as its system stomach cancer mice model. Briefly: H&E histology of stomach. Format: in vivo, C57BL/6 mice. The note with it: 10× magnification, whole tumor area. As for the experimental part:
A stomach cancer mice model was developed by feeding N-methyl-N-nitrosourea (NMNU) with water (IACUC protocol no A-201019-A). The 6-week-old C57BL/6 mice were kept in a 12 hr light-12 hr dark cycle. The mice had unprotected access to food and water. NMNU was dissolved in distilled water available ad libitum, freshly prepared three times per week. The mice received 240 ppm NMNU in the drinking water over 5 weeks (every other week). Five weeks after NMNU administration, the mice were ready for the experiment, as the method was reported elsewhere. A total of 30 stomach cancer mice were prepared and divided randomly into […]—no treatment (control), 5FU, BG/5FU, siRNA, BG/siRNA, and BG/5FU/siRNA. Another group of healthy mice were used as a negative control without any treatment. To investigate therapeutic feasibility, 5FU (10 mg/kg) and siRNA (100 nM) was administered either orally (PO) or intravenously (IV). All the formulations were freshly prepared prior to administration. Formulations were administered orally on every 3rd day for the subsequent 5 cycles over 15 days. The animals were sacrificed 72 hr after the last treatment followed by the organ harvest and blood collection for further studies. Immediately after harvesting the size and weight of the stomach and intestine were measured. […]

The nature of data set [6]: Ex vivo diffusion study in porcine intestine lumen. Format: in vitro ADME. The note with it: for distribution in intestine layers (fluorescence): with BG. The text has this: The mucoadhesiveness and intestinal transportation of hydrophobic small molecule were further confirmed by an ex vivo diffusion study in a porcine intestine lumen. As the mucous layer is a barrier for hydrophobic molecules, to check how it crosses through the epithelial layer with assistance of BG we have used coumarin-6, a small molecule hydrophobic fluorescent dye with similar chemical and physical properties (molecular weight and hydrophobicity) as 5FU, for ease of visualization and detection purpose. […] The same tissue was subjected to be observed under a ChemiDoc imager to capture the fluorescence signal within the cross-sectioned of the intestinal lumen and similar result was observed. With time (30 min, 2 hr, and 12 hr) more coumarin-6 were distributed throughout the intestine which is an indication and confirmation of BG's ability to facilitate intestinal transportation of hydrophobic payload (FIG. 2C).

With `O=c1[nH]cc(F)c(=O)[nH]1` [5FU, 5-fluoreuracil], the “Relative expression of Bcl2 (WB)” value in the data set with Bcl2 [1] came out at 1.24±0.11. The “area percentage of Bcl2 antibodies” value in the data set on Bcl2 [2] was 1.22%. Besides, in the data set with Ki67, the “area of Ki67 positive cells” value worked out at 0.54%. The treatment response rate in data set [3] is recorded as 10-15%. The “degree of apoptosis (mean fluorescent intensity)” value in data set [4] was 49%. Moreover, in data set [5], the “tumor in stomach by H&E” value is “tumor region got significantly reduced”.

Turning to `CCN(CC)c1ccc2cc(-c3nc4ccccc4s3)c(=O)oc2c1` [coumarin-6, Coumarin 6], the “distribution in intestine layers (fluorescence)” value is reported as “observed within deeper layers of the intestine” in data set [6] (2nd hr) and “incorporates evenly across the layers of the intestine” in data set [6] (12th hr). Also, in data set [6] (without BG), the “diffusion through the intestinal layer” value was “not able to diffuse through the intestinal layer”.
